Article PMC8038501, “Bioactivity-Guided Isolation of Phytochemicals from Vaccinium dunalianum Wight and Their Antioxidant and Enzyme Inhibitory Activities” (Molecules, 2021)
Marks after values point to notes of the source that are not given here.

Tests used:
α-glucosidase = α-glucosidase (Saccharomyces cerevisiae, UniProt P53341); experiment: α-glucosidase inhibitory assay (PNPG substrate); type: biochemical
Experimental: The α-glucosidase inhibitory assay was performed as previously described with slight modifications. A 50 µL sample (20, 50, 100, 200, 400, 600 µg/mL) solution was added to the mixture of the α-glucosidase solution, phosphate buffer (100 µL, pH 6.8), and 50 µL of 10 mM PNPG in a 96-well microplate. Subsequently, the reaction mixture was incubated for 15 min at 37 °C. Then, sodium carbonate (50 µL, 0.2 M) was added to terminate the reaction. A blank was prepared for each sample without enzyme solution to correct the background absorbance (control). The absorbance (A) of the reaction mixture was measured at 405 nm by using a SpectraMax M5 microplate reader (Molecular Devices, Sunnyvale, CA, USA). The inhibitory percentage was determined as follows:Inhibition (%) = [(Acontrol − Asample)/Acontrol] × 100(1)

[1] = target: T1, porcine pancreatic lipase (Sus scrofa, UniProt P00591); experiment: pancreatic lipase inhibitory assay (p-nitrophenyl laurate substrate); type: biochemical; details: mean ± SD, three replicates; read-out: Enzyme Inhibition IC50 Pancreatic Lipase (converted)
T1 construct: purchased Sigma-Aldrich (Shanghai, China)
T1 sequence (P00591 1-450): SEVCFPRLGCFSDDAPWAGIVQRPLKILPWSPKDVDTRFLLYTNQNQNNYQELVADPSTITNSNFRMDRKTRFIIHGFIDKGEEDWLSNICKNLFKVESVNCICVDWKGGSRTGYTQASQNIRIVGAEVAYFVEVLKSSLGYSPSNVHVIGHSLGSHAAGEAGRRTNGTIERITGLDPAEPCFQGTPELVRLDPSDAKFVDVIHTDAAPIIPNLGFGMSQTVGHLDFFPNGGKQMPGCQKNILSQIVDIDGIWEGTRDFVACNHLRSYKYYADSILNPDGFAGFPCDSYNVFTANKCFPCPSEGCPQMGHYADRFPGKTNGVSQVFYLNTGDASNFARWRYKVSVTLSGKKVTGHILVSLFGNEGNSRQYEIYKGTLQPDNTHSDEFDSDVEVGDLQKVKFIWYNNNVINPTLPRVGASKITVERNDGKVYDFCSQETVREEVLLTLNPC
Experimental: The pancreatic lipase inhibitory assay was conducted as previously described with some modifications. First, the porcine pancreatic lipase solution was centrifuged to collect the supernatant enzyme at 4000 g for 5 min. The substrate solution was prepared with p-nitrophenyl laurate dissolved in 5 mM sodium acetate (1:100 m/v) and Triton X-100 (1:100 v/v). The substrate solution was placed in boiling water for 2 min to fully dissolve, and then cooled down to room temperature for the enzymatic assay. The sample was dissolved in DMSO (<5% in the final reaction reagents) and diluted with 100 mM Tris-buffer (pH 8.2). Samples of 50, 100, 200, 400, 600, and 800 µg/mL were prepared. Orlistat was used as a positive control. In the enzymatic assay, the test samples (100 µL) were mixed with Tris buffer (400 µL), substrate solution (350 µL), and pancreatic lipase (150 µL). The mixture was then incubated at 37 °C for 2 h and centrifugated at 4000 g for 3 min. The absorbance of the reaction mixture was measured at 400 nm by using a SpectraMax M5 microplate reader. The percent inhibition of pancreatic lipase activity was calculated by Equation (1).

[2] = DPPH free-radical scavenging assay; details: for Antioxidant Activity DPPH: mean ± SD, three replicates
Experimental: The DPPH free radical scavenging activity was carried out by the method previously described. Briefly, 2 mL of DPPH solution (0.1 mmol/L) was mixed with 0.5 mL of sample solutions or Trolox solution (100 μg/mL in methanol). Then, the mixture was incubated for 30 min in the dark at room temperature. Absorbance of the mixture was measured at 517 nm using a SpectraMax M5 microplate reader. DPPH radical scavenging activity of each extract was expressed as nmol Trolox equivalent (TE) per mg of extract (nmol TE/mg extract).

[3] = Ferric reducing/antioxidant power (FRAP) assay; details: for Antioxidant Activity FRAP: mean ± SD, three replicates
Experimental: The FRAP assay was conducted according to the procedure reported with slight modifications. The FRAP reagent was freshly prepared with 300 mM acetate buffer (pH 3.6), 10 mM TPTZ (2,4,6-tripyridyl-s-triazine), and 20 mM FeCl3-6H2O (10:1:1, v/v)]. A 0.5 mL of each sample (100 μg/mL) was mixed with 4.5 mL freshly prepared FRAP reagent. Then, the reaction mixture was incubated at 37 °C in the dark for 10 min. The absorbance of the mixture was recorded at 593 nm against a blank that was prepared using distilled water. Trolox was used as a control. The FRAP values were expressed as nmol Trolox equivalent (TE) per mg of extract (nmol TE/mg extract).

[4] = ABTS radical scavenging assay; details: for Antioxidant Activity ABTS: mean ± SD, three replicates
Experimental: The ABTS assay was performed according to the procedure described earlier. Briefly, 7 mM ABTS was added to 2.5 mM […] and the mixture was allowed to stand in the dark at room temperature for 16 h to obtain the ABTS radical solution. The ABTS solution was diluted with methanol with an absorbance of 0.70 ± 0.02 at 734 nm. After adding the 25 μL extract (100 μg/mL in methanol) to 200 μL ABTS solution, the absorbance was measured after 6 min at 734 nm by using a SpectraMax M5 microplate reader. Results were expressed as nmol Trolox equivalent (TE) per mg of extract (nmol TE/mg extract).

[5] = cited from earlier work
ɑ-glucosidase = system: ɑ-glucosidase; set-up: method as in PMID 28832228; details: cited from earlier work

α-glucosidase, sequence (P53341 whole entry): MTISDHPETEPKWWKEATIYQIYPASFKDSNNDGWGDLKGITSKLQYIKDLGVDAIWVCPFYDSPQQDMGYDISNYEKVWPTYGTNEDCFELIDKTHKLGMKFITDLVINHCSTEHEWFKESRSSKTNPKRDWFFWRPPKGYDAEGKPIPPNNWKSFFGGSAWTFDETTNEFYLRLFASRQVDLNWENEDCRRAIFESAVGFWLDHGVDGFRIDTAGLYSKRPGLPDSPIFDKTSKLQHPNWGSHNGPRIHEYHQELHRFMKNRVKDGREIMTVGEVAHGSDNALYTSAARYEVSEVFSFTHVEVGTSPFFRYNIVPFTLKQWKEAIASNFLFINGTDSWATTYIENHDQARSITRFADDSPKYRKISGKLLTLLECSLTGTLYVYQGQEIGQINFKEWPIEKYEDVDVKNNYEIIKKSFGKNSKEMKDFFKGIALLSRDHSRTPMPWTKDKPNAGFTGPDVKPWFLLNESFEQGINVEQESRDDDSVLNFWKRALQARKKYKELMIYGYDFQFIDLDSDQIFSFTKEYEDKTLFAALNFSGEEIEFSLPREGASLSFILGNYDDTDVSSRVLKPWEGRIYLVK

Structure (SMILES)	IC50 [1] [µM]	α-glucosidase inhibition (in words) (α-glucosidase)	Antioxidant Activity DPPH [2]	Antioxidant Activity FRAP [3]	Antioxidant Activity ABTS [4]	effect on antioxidant activity (reported) [5]	DPPH ([2]; unit in section 2.5) [nmol TE/g extract]	FRAP ([3]; unit in section 2.5) [nmol TE/g extract]	ABTS ([4]; unit in section 2.5) [nmol TE/g extract]	ɑ-glucosidase inhibitory activities (reported) (ɑ-glucosidase)
O=C(O)c1ccc(O)cc1 [Compound 10, p-Hydroxybenzoic acid]	2220	relatively weak inhibitory activity	1.12 ± 0.23 ^h nmol Trolox equivalent/mg extract	0.87 ± 0.01 ^f nmol Trolox equivalent/mg extract	–	–	–	–	–	–
O=c1c(O[C@@H]2O[C@H](CO)[C@@H](O)[C@H](O)[C@H]2O)c(-c2ccc(O)cc2)oc2cc(O)cc(O)c12 [Compound 9, Kaempferol-3-O-β-D-glucopyranoside]	778	relatively weak inhibitory activity	0.35 ± 0.01 ^cd nmol Trolox equivalent/mg extract	–	6.38 ± 0.34 ^e nmol Trolox equivalent/mg extract	positive effect on antioxidant activity	–	–	–	–
OC[C@H]1O[C@@H](Oc2ccc(O)cc2)[C@H](O)[C@@H](O)[C@@H]1O [Compound 1, Arbutin]	1290	relatively weak inhibitory activity	0.45 ± 0.02 ^e nmol Trolox equivalent/mg extract	0.76 ± 0.01 ^d nmol Trolox equivalent/mg extract	8.38 ± 3.74 ^efg nmol Trolox equivalent/mg extract	–	–	–	–	–
O=C(/C=C/c1ccc(O)c(O)c1)OC[C@H]1O[C@@H](O)[C@H](O)[C@@H](O)[C@@H]1O [Compound 2, 6-O-E-Caffeoyl-D-glucopyranose]	303	–	1.05 ± 0.11 ^h nmol Trolox equivalent/mg extract	0.84 ± 0.01 ^e,f nmol Trolox equivalent/mg extract	15.93 ± 1.65 ^ij nmol Trolox equivalent/mg extract	–	–	–	–	–
CCOC(=O)/C=C/c1ccc(O)c(O)c1 [Compound 6, Caffeic acid ethyl ester]	1240	relatively weak inhibitory activity	0.42 ± 0.03 ^e nmol Trolox equivalent/mg extract	0.76 ± 0.01 ^d nmol Trolox equivalent/mg extract	4.16 ± 0.25 ^b nmol Trolox equivalent/mg extract	–	–	–	–	good ɑ-glucosidase inhibitory activities

More lines, main results first:

IC50 [1] [µM]	Structure (SMILES)	α-glucosidase inhibition (in words) (α-glucosidase)	Antioxidant Activity DPPH [2]	Antioxidant Activity FRAP [3]	Antioxidant Activity ABTS [4]	effect on antioxidant activity (reported) [5]	DPPH ([2]; unit in section 2.5) [nmol TE/g extract]	FRAP ([3]; unit in section 2.5) [nmol TE/g extract]	ABTS ([4]; unit in section 2.5) [nmol TE/g extract]	ɑ-glucosidase inhibitory activities (reported) (ɑ-glucosidase)
1310	O=C(O)/C=C/c1ccc(O)c(O)c1 [Compound 3, Caffeic acid]	–	0.39 ± 0.05 ^de nmol Trolox equivalent/mg extract	0.85 ± 0.01 ^ef nmol Trolox equivalent/mg extract	3.86 ± 0.48 ^b nmol Trolox equivalent/mg extract	positive effect on antioxidant activity	–	–	–	–
225	O=C(/C=C/c1ccc(O)c(O)c1)OC[C@H]1O[C@@H](Oc2ccc(O)cc2)[C@H](O)[C@@H](O)[C@@H]1O [Compound 7, 6′-O-Caffeoylarbutin]	–	1.21 ± 0.43 ^c nmol Trolox equivalent/mg extract	0.87 ± 0.01 ^f nmol Trolox equivalent/mg extract	16.96 ± 0.95 ^j nmol Trolox equivalent/mg extract	–	1.21 ± 0.43	0.87 ± 0.01	16.96 ± 0.95	–
759	O=c1c(OC2O[C@H](CO)[C@@H](O)[C@@H]2O)c(-c2ccc(O)c(O)c2)oc2cc(O)cc(O)c12 (stereo in doubt) [Compound 5, Quercetin-3-O-arabinofuranoside]	relatively weak inhibitory activity	0.81 ± 0.17 ^h nmol Trolox equivalent/mg extract	–	–	positive effect on antioxidant activity	–	–	–	–
741	O=C(/C=C/c1ccc(O)cc1)OC[C@H]1O[C@@H](Oc2ccc(O)cc2)[C@H](O)[C@@H](O)[C@@H]1O [Compound 8, Robustaside A]	relatively weak inhibitory activity	0.41 ± 0.06 ^e nmol Trolox equivalent/mg extract	0.49 ± 0.01 ^b nmol Trolox equivalent/mg extract	4.71 ± 0.23 ^c nmol Trolox equivalent/mg extract	–	–	–	–	–
1380	COC(=O)/C=C/c1ccc(O)c(O)c1 [Compound 4, Caffeic acid methyl ester]	–	0.37 ± 0.01^d nmol Trolox equivalent/mg extract	0.82 ± 0.01 ^e nmol Trolox equivalent/mg extract	3.10 ± 1.07 ^b nmol Trolox equivalent/mg extract	–	–	–	–	good ɑ-glucosidase inhibitory activities
